For orientation: IC50 means the concentration needed to halve the response being measured. A high value points to lower potency.

Some results are limits rather than exact numbers.

These results are taken from patent publication US20260193238A1, “PHARMACEUTICAL COMPOUNDS AS PARP7 AND/OR PARP1 INHIBITORS” (Duke Street Bio Limited, priority 2022, published 2026).

PARP1, sequence (P09874 whole entry): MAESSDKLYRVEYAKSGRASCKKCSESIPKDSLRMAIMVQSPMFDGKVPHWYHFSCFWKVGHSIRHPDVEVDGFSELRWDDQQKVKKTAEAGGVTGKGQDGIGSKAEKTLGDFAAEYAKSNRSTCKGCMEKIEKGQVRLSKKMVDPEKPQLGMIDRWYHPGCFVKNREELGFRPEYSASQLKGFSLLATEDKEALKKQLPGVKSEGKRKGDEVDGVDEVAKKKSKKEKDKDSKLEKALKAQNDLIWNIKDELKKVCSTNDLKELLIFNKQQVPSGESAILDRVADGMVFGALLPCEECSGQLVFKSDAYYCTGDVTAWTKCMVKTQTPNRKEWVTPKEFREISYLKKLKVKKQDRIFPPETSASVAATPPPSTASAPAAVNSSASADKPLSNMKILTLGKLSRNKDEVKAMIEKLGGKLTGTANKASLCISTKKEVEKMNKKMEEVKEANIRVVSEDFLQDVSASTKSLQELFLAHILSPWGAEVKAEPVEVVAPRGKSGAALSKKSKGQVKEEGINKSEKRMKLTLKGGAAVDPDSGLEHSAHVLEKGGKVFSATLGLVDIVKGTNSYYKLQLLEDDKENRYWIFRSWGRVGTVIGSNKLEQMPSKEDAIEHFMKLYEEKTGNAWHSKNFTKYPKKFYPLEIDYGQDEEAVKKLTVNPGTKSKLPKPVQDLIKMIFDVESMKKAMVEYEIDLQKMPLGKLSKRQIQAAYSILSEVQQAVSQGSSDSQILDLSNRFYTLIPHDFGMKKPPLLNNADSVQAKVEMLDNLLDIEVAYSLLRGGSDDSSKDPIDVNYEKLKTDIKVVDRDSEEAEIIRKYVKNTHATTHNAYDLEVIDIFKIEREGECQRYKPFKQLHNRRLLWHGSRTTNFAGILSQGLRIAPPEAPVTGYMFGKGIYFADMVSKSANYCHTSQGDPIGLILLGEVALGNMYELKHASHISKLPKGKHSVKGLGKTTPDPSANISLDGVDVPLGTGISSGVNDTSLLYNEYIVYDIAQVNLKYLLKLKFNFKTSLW

The first assay has as its target PARP1 (Homo sapiens, UniProt P09874). Nature of the assay: PARP1 biochemical DELFIA assay (auto-PARylation). The conditions noted are these: Table 1.
Method: Prior to assay, wells were washed 3×5 min in coating wash buffer.
% data was fitted to a non-linear regression equation (log inhibitor vs response-variable slope 4-parameters) to obtain IC50 values.
`O=C(CCN1CCC(c2cc(C(F)(F)F)c(=O)[nH]n2)C1)N1CCN(c2ncc(C(F)(F)F)cn2)CC1` (single isomer, unassigned) [Compound 7a] registered a 50% inhibitory concentration (IC50) of 100 to 1000 nM.

The compound `O=C(CCN1CCCC(c2cc(C(F)(F)F)c(=O)[nH]n2)C1)N1CCN(c2ncc(C(F)(F)F)s2)CC1` (single isomer, unassigned) [Compound 27a] displayed an IC50 of 10 to 100 nM.

`O=C(CCN1CCCC(c2cc(C(F)(F)F)c(=O)[nH]n2)C1)N1CCN(c2ccc(Cl)cn2)CC1` (single isomer, unassigned) [Compound 15a] had an IC50 of 100 to 1000 nM.

The same assay, now with this note: Table 1A.
`N#Cc1cnc(N2CCN(C(=O)CN3CCCC3c3cc(C(F)(F)F)c(=O)[nH]n3)CC2)s1` (racemic) [Compound 44rac] displayed an IC50 of 10 to 100 nM.

For `O=C(CN1CCCC1c1c[nH]c(=O)c(C(F)(F)F)c1)N1CCN(c2ncc(C(F)(F)F)cn2)CC1` (single isomer, unassigned) [Compound 60b, 5-(1-(2-oxo-2-(4-(5-(trifluoromethyl)pyrimidin-2-yl)piperazin-1-yl)ethyl)pyrrolidin-2-yl)-3-(trifluoromethyl)pyridin-2(1H)-one], the IC50 fell in the range of 100 to 1000 nM.

`O=C(CN1CCCC1c1n[nH]c(=O)c2ccccc12)N1CCN(c2ncc(C(F)(F)F)cn2)CC1` (single isomer, unassigned) [Compound 38b, 4-(1-(2-oxo-2-(4-(5-(trifluoromethyl)pyrimidin-2-yl)piperazin-1-yl)ethyl)pyrrolidin-2-yl)phthalazin-1(2H)-one] yielded a half-maximal inhibitory concentration (IC50) of 1000 to 10000 nM.

`CCc1[nH]c(=O)c(C(F)(F)F)cc1C1CCCN1CC(=O)N1CCN(c2ncc(C(F)(F)F)cn2)CC1` (single isomer, unassigned) [Compound 105a] showed an IC50 of 1000 to 10000 nM.

As to `O=C(CN1CCCC1c1cc(C(F)(F)F)c(=O)[nH]n1)N1CCN(c2ccc(C(F)(F)F)cn2)CC1` (single isomer, unassigned) [Compound 42b], the IC50 is 10 to 100 nM.

Turning to `CNC(=O)c1cnc(N2CCN(C(=O)CN3CCCC3c3cc(C(F)(F)F)c(=O)[nH]n3)CC2)cn1` (single isomer, unassigned) [Compound 54a], the IC50 was 100 to 1000 nM.

The compound `N#Cc1cc(C2CCCN2CC(=O)N2CCN(c3nc4cc(F)ccc4o3)CC2)n[nH]c1=O` (single isomer, unassigned) [Compound 149a] had an IC50 of 10 to 100 nM.

Compound `O=C(CN1CCCC1c1cc(C(F)(F)F)c(=O)[nH]n1)N1CCN(c2nc3ccc(F)cc3o2)CC1` (single isomer, unassigned) [Compound 95b] showed an IC50 of 1000 to 10000 nM.

With `CNC(=O)c1ccc(N2CCN(C(=O)CCN3CCC(c4n[nH]c(=O)c5ccccc45)CC3)CC2)cn1` [Compound 48, N-methyl-5-(4-(3-(4-(4-oxo-3,4-dihydrophthalazin-1-yl)piperidin-1-yl)propanoyl)piperazin-1-yl)picolinamide], the IC50 was at most 10 nM.

`N#Cc1cc(C2CCCN2CC(=O)N2CCN(c3nc4ccc(F)cc4o3)CC2)n[nH]c1=O` (single isomer, unassigned) [Compound 111a] had an IC50 of 10 to 100 nM.

In turn, `CN(c1ncc(C(F)(F)F)cn1)C1CCN(C(=O)CN2CCCC2c2cc(C(F)(F)F)c(=O)[nH]n2)CC1` (single isomer, unassigned) [Compound 107a] showed an IC50 of 1000 to 10000 nM.

With `N#Cc1cc(C2CCCN2CC(=O)N2CCN(c3ncc(C(F)(F)F)cn3)CC2)n[nH]c1=O` (single isomer, unassigned) [Compound 98a, 3-oxo-6-(1-(2-oxo-2-(4-(5-(trifluoromethyl)pyrimidin-2-yl)piperazin-1-yl)ethyl)pyrrolidin-2-yl)-2,3-dihydropyridazine-4-carbonitrile], the IC50 fell in the range of 100 to 1000 nM.

As to `CNC(=O)c1ccc(N2CCN(C(=O)CN3CCC(c4n[nH]c(=O)c5ccccc45)CC3)CC2)cn1` [Compound 50], the IC50 is 10 to 100 nM.

`O=C(CN1CCCC1c1cc(C(F)(F)F)c(=O)[nH]n1)N1CC2(C1)CN(c1ncc(C(F)(F)F)cn1)C2` (single isomer, unassigned) [Compound 106b] came in with an IC50 of 1000 to 10000 nM.
